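Step 1: Grow cells in 96-well plates. Step 2: Expose to compound for 48 hours at 5 concentrations. Step 3: Interpolate endpoints linearly; if unreached, use highest concentration. GI50 marks 50% less growth.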 Calls of active or inactive are those of the source. Rule as the data show it: active = GI50 up to about 1.1 µM and inactive = higher.
Key:
Experiment in all cases: NCI anticancer screen, dose series, 48 h
[1] = system: HCC 2998
[2] = system: NCI-H460
[3] = system: OVCAR-4
[4] = system: UACC-62
[5] = system: TK-10
[6] = system: T47D
[7] = system: OVCAR-5
[8] = system: KM12
[9] = system: CAKI-1
[10] = system: DU-145
[11] = system: K562
[12] = system: IGROV-1
[13] = system: NCI-H522
[14] = system: 786-0
[15] = system: SN12C
[16] = system: RPMI-8226
[17] = system: A498
[18] = system: SNB-75
[19] = system: SK-MEL-2
[20] = system: SF-295
[21] = system: PC-3
[22] = system: EKVX
[23] = system: HT-29
[24] = system: SF-268
[25] = system: Malme-3M
[26] = system: M14
[27] = system: HCT-116
[28] = system: MDA-N
[29] = system: UACC-257
[30] = system: NCI-H226
[31] = system: SR
[32] = system: A549
[33] = system: ACHN
[34] = system: COLO 205
[35] = system: MDA-MB-435
[36] = system: MDA-MB-231
[37] = system: MOLT-4
[38] = system: HCT-15
[39] = system: Hs-578T
[40] = system: MCF7
[41] = system: BT-549
[42] = system: SK-OV-3
[43] = system: RXF 393
[44] = system: NCI/ADR-RES
[45] = system: U-251
[46] = system: SNB-19
[47] = system: OVCAR-8
[48] = system: UO-31
[49] = system: SW-620
[50] = system: LOX IMVI
[51] = system: OVCAR-3
[52] = system: HOP-62
[53] = system: CCRF-CEM
[54] = system: SK-MEL-5
[55] = system: SK-MEL-28
[56] = system: HOP-92
[57] = system: SF-539
[58] = system: NCI-H23
[59] = system: HL-60

In the case of O=C1c2sc(-c3ccc(F)cc3)cc2-n2cccc21, the GI50 [1] was 29.2 µM (inactive), the GI50 [2] was 24.9 µM (inactive) and the GI50 [3] was 28.1 µM (inactive). The GI50 [4] was 28.3 µM (inactive), the GI50 [5] was 21.9 µM (inactive) and the GI50 [6] was 12.8 µM (inactive). The GI50 [7] was > 100 µM (inactive), the GI50 [8] was 26.4 µM (inactive) and the GI50 [9] was 17.1 µM (inactive). The GI50 [10] was 24.6 µM (inactive), the GI50 [11] was 10.2 µM (inactive) and the GI50 [12] was 8.39 µM (inactive). The GI50 [13] was 34.8 µM (inactive), the GI50 [14] was 16.9 µM (inactive) and the GI50 [15] was 19.4 µM (inactive). The GI50 [16] was 23.3 µM (inactive), the GI50 [17] was 23.3 µM (inactive) and the GI50 [18] was 18.4 µM (inactive). The GI50 [19] was > 100 µM (inactive), the GI50 [20] was 25.1 µM (inactive) and the GI50 [21] was 37.2 µM (inactive). The GI50 [22] was 1.89 µM (inactive), the GI50 [23] was 25.2 µM (inactive) and the GI50 [24] was 19.9 µM (inactive). For the same compound, the GI50 [25] was 77.3 µM (inactive), the GI50 [26] was 38.1 µM (inactive) and the GI50 [27] was 18.4 µM (inactive). For the same compound, the GI50 [28] was 25.8 µM (inactive), the GI50 [29] was 47.5 µM (inactive) and the GI50 [30] was 24.4 µM (inactive). For the same compound, the GI50 [31] was 17.8 µM (inactive), the GI50 [32] was 26 µM (inactive) and the GI50 [33] was 29.9 µM (inactive). For the same compound, the GI50 [34] was 48 µM (inactive), the GI50 [35] was 31.4 µM (inactive) and the GI50 [36] was 22.2 µM (inactive). The GI50 [37] was 21.4 µM (inactive), the GI50 [38] was 51.3 µM and the GI50 [39] was 19.7 µM (inactive). For the same compound, the GI50 [40] was 24.5 µM (inactive), the GI50 [41] was 34 µM (inactive) and the GI50 [42] was 28.2 µM (inactive). For the same compound, the GI50 [43] was 23.5 µM (inactive), the GI50 [44] was 31.2 µM (inactive) and the GI50 [45] was 16.4 µM (inactive). For the same compound, the GI50 [46] was 16.7 µM (inactive), the GI50 [47] was 27.6 µM (inactive) and the GI50 [48] was 22.5 µM (inactive). The GI50 [49] was 47.6 µM (inactive), the GI50 [50] was 32.1 µM (inactive) and the GI50 [51] was 32.8 µM (inactive). The GI50 [52] was 17 µM (inactive), the GI50 [53] was 28.5 µM (inactive) and the GI50 [54] was 38.5 µM (inactive). For the same compound, the GI50 [55] was 69.8 µM (inactive).
For Cc1ccc([N+](=O)[O-])cc1S(=O)(=O)Nc1ccc(C(=O)/C=C/c2ccccc2)cc1, the GI50 [56] was 15.9 µM (inactive), the GI50 [1] was 17.7 µM (inactive) and the GI50 [2] was 18.1 µM (inactive). For the same compound, the GI50 [3] was 1.96 µM (inactive), the GI50 [4] was 13.2 µM (inactive) and the GI50 [5] was 31.3 µM (inactive). The GI50 [6] was 16.3 µM (inactive), the GI50 [7] was 25.6 µM (inactive) and the GI50 [8] was 16.7 µM (inactive). For the same compound, the GI50 [9] was 22.2 µM (inactive), the GI50 [10] was 15.8 µM (inactive) and the GI50 [11] was 4.79 µM (inactive). For the same compound, the GI50 [12] was 18.7 µM (inactive), the GI50 [13] was 20.2 µM (inactive) and the GI50 [57] was 30.5 µM (inactive). For the same compound, the GI50 [14] was 16.7 µM (inactive), the GI50 [15] was 19.8 µM (inactive) and the GI50 [16] was 11.5 µM (inactive). For the same compound, the GI50 [18] was 17.3 µM (inactive), the GI50 [19] was 19.1 µM (inactive) and the GI50 [20] was 20.3 µM (inactive). The GI50 [21] was 15.6 µM (inactive), the GI50 [22] was 18 µM (inactive) and the GI50 [23] was 25.4 µM (inactive). For the same compound, the GI50 [24] was 24.3 µM (inactive), the GI50 [25] was 18.5 µM (inactive) and the GI50 [26] was 20 µM (inactive). The GI50 [27] was 15.7 µM (inactive), the GI50 [28] was 20.2 µM (inactive) and the GI50 [29] was 17.3 µM (inactive). For the same compound, the GI50 [30] was 28.6 µM (inactive), the GI50 [31] was 22.1 µM (inactive) and the GI50 [32] was 23.3 µM (inactive). For the same compound, the GI50 [33] was 13.2 µM (inactive), the GI50 [34] was 20.6 µM (inactive) and the GI50 [35] was 19.6 µM (inactive). The GI50 [36] was 16.9 µM (inactive), the GI50 [37] was 4.51 µM (inactive) and the GI50 [38] was 19.5 µM. For the same compound, the GI50 [39] was 50.6 µM (inactive), the GI50 [40] was 10.1 µM (inactive) and the GI50 [41] was 17.7 µM (inactive). For the same compound, the GI50 [42] was 31.3 µM (inactive), the GI50 [43] was 11.4 µM (inactive) and the GI50 [44] was 22 µM (inactive). The GI50 [46] was 18.6 µM (inactive), the GI50 [47] was 23.2 µM (inactive) and the GI50 [58] was 16.7 µM (inactive). For the same compound, the GI50 [48] was 18.4 µM (inactive), the GI50 [49] was 24.7 µM (inactive) and the GI50 [50] was 19 µM (inactive). The GI50 [51] was 15.7 µM (inactive), the GI50 [59] was 25.3 µM (inactive) and the GI50 [52] was 17.7 µM (inactive). For the same compound, the GI50 [53] was 20 µM (inactive), the GI50 [54] was 16.3 µM (inactive) and the GI50 [55] was 23.4 µM (inactive).
